In patent US11498943B2, “Amyloid inhibitory peptides” (TECHNISCHE UNIVERSITÄT MÜNCHEN, priority 2018, dated 2022):
Where a SMILES comes first, the peptide text is derived from it. [ ]: non-standard residue; d: D form. NMeI = CC[C@H](C)[C@H](NC)C(=O)O; Sar = CNCC(=O)O

How the values were obtained:
[1] = Peptide stability in human plasma (in vitro); type: in vitro ADME; conditions: human blood plasma, 200 μM peptide, 37° C., read-out: t1/2 in human plasma
Experimental: Peptide Stability in Human Plasma (In Vitro)
Peptides were dissolved in human blood plasma (obtained from voluntary healthy donors) at a concentration of 200 μM and incubated at 37° C. for various time intervals. Following quenching (1/1) with aqueous trichloroacetic acid (10%), solutions were incubated on ice for 10 min, subjected to centrifugation to precipitate plasma proteins (20200 g; 4 min), and the supernatants were mixed (1/2) with a solution consisting of 80% HPLC buffer B and 20% HPLC buffer A (see below). To quantify intact peptide at different time points, solutions containing the supernatants were analyzed by RP-HPLC (detection at 214 nm) by using a Nucleosil 100 C18 column (Grace) (length 33 mm length, ID 8 mm, 7 μm particle size) with a flow rate of 2.0 ml/min and eluting buffers A, 0.058% (v/v) TFA in water, and B, 0.05% (v/v) TFA in 90% (v/v) CH3CN in water. The elution gradient was 10-90% B in A over 8 min; this step was followed by a 90-10% B in A over 3 min step to establish starting conditions. HPLC fractions were collected, lyophilized, and analyzed by MALDI-TOF-MS using a Bruker Daltonik MALDI-TOF MS instrument.

Aβ40 [2] = biological target: T1, Aβ40 (Homo sapiens, UniProt P05067); conditions: Aβ40 500 nM; value marked with literature reference [5]; read-out: IC50 (±SD) (nM) Aβ40 inhibition; cited from earlier work
T1 construct: Aβ40 (TFA salt) was synthesized by Fmoc-based solid phase synthesis (SPPS); made in house; host or cells: chemical synthesis (Fmoc SPPS on Tentagel R PHB resin)
T1 sequence (P05067 672-711): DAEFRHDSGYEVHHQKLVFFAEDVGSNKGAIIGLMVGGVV

IAPP [3] = biological target: T2, IAPP (Homo sapiens, UniProt P10997); parameters: IAPP was synthesized by SPPS and the Fmoc-strategy on RINK resin, subjected to air oxidation and purified by RP-HPLC; made in house; host or cells: chemical synthesis (Fmoc SPPS on RINK resin, air oxidation); conditions: as previously found; cited from earlier work
T2 sequence (P10997 34-70 limits assumed): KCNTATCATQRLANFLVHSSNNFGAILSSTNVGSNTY

Aβ40 [4] = biological target: T1, Aβ40; conditions: as previously found; cited from earlier work
Aβ40 [5] = biological target: T1, Aβ40; assay: Aβ40 fibrillogenesis by ThT binding, confirmed by TEM, with cell damage by MTT reduction; type: biochemical; conditions: Aβ40 16.5 μM, MTT in PC12 cells
Experimental: (§1) Thioflavin T (ThT) Binding Assays
(§2) At indicated time points, aliquots were gently mixed with a ThT solution (20 μM ThT in 0.05 M glycine/NaOH, pH 8.5); ThT binding was determined immediately by measuring fluorescence emission at 486 nm upon excitation at 450 nm using a 2030 Multilabel Reader VictorX3 (PerkinElmer Life Sciences). Effects of peptides added at specific pre- and post-nucleation time points of Aβ40 amyloidogenesis were studied by adding aliquots of Aβ40 solutions (16.5 μM; incubation conditions as above) aged for the indicated time points to the peptide (in dry form) as previously described and ThT binding was determined as above.
(§3) 10 μl aliquots of solutions of the ThT binding and MTT assays were applied on carbon-coated grids at indicated time points, washed with distilled water and stained with aqueous 2% (w/v) uranyl acetate as described. Grids were examined using a JEOL JEM 100CX (at 100 kV) or a JEOL 1400 Nus electron microscope (at 120 kV).
(§4) Both cell lines were cultured and plated in 96-well plates as described. […] Following incubation with the cells for ˜20 h (37° C., humidified atmosphere with 5% CO2), the MTT reduction assay was used to assess cell damage/metabolic activity as previously described.

IAPP [6] = biological target: T2, IAPP; assay: IAPP fibrillogenesis by ThT binding, confirmed by TEM, with cell damage by MTT reduction; type: biochemical; parameters: IAPP was synthesized by SPPS and the Fmoc-strategy on RINK resin, subjected to air oxidation and purified by RP-HPLC; made in house; host or cells: chemical synthesis (Fmoc SPPS on RINK resin, air oxidation); conditions: IAPP 6 μM, MTT in RIN5fm cells
Experimental: as §1, §2, §3, §4

half-life at 200 μM [1]: ~20 min
Structure (SMILES): CC[C@H](C)[C@@H](C(=O)N[C@@H](CC(C)C)C(=O)N[C@@H](CO)C(N)=O)N(C)C(=O)[C@H](C)NC(=O)CN(C)C(=O)[C@H](Cc1ccccc1)NC(=O)[C@H](CC(N)=O)NC(=O)[C@H](CCCNC(=N)N)NC(=O)[C@H](CCCNC(=N)N)NC(=O)[C@H](CCCNC(=N)N)NC(=O)[C@H](Cc1c[nH]cn1)NC(=O)[C@@H](NC(=O)[C@H](CC(C)C)NC(=O)[C@H](Cc1ccccc1)NC(=O)[C@H](CC(N)=O)NC(=O)[C@H](C)NC(=O)[C@H](CC(C)C)NC(=O)[C@H](CCCNC(=N)N)NC(=O)[C@H](CCC(N)=O)NC(=O)[C@@H](NC(=O)[C@H](C)N)[C@@H](C)O)C(C)C [R3-GI (1)] (H-ATQRLANFLVHRRRNF[Sar]A[NMeI]LS-NH2; N-terminus assumed)
IC50 (Aβ40 [2]): 116 nM | app. Kd of interaction with fluorescently labeled IAPP (IAPP [3]): mid-nanomolar | app. Kd of interaction with fluorescently labeled Aβ40 (Aβ40 [4]): mid-nanomolar | Effect on amyloid self-assembly and cell-damaging effects of Aβ40 (Aβ40 [5]): able to inhibit | Effect on amyloid self-assembly and cell damage by IAPP (IAPP [6]): not IAPP amyloidogenesis
